In PubChem BioAssay (NCI):
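All cell lines were grown in 96-well plates and treated with compound for 48 hours. At the GI50, growth is halved. The concentration for full growth arrest is given as TGI.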

What was measured:
Experiment in all cases: DTP human tumour cell line panel, 48 h
T-47D breast = test system: T-47D breast
MALME-3M melanoma = test system: MALME-3M melanoma
SNB-19 CNS = test system: SNB-19 CNS
SK-MEL-28 melanoma = test system: SK-MEL-28 melanoma
HT29 colon = test system: HT29 colon
SF-295 CNS = test system: SF-295 CNS
NCI-H226 lung = test system: NCI-H226 lung
IGROV1 ovarian = test system: IGROV1 ovarian
RPMI-8226 leukemia = test system: RPMI-8226 leukemia
NCI-H522 lung = test system: NCI-H522 lung
KM12 colon = test system: KM12 colon
NCI/ADR-RES ovarian = test system: NCI/ADR-RES ovarian
HOP-92 NSCLC = test system: HOP-92 NSCLC
TK-10 renal = test system: TK-10 renal
K-562 leukemia = test system: K-562 leukemia
SN12C renal = test system: SN12C renal
ACHN renal = test system: ACHN renal
BT-549 breast = test system: BT-549 breast
SNB-75 CNS = test system: SNB-75 CNS
PC-3 prostate = test system: PC-3 prostate
RXF 393 renal = test system: RXF 393 renal
HCT-15 colon = test system: HCT-15 colon
M14 melanoma = test system: M14 melanoma
A549 NSCLC = test system: A549 NSCLC
SK-MEL-5 melanoma = test system: SK-MEL-5 melanoma
MOLT-4 leukemia = test system: MOLT-4 leukemia
LOX IMVI melanoma = test system: LOX IMVI melanoma
MDA-MB-231 breast = test system: MDA-MB-231 breast
SK-OV-3 ovarian = test system: SK-OV-3 ovarian
SF-539 CNS = test system: SF-539 CNS
SK-MEL-2 melanoma = test system: SK-MEL-2 melanoma
OVCAR-4 ovarian = test system: OVCAR-4 ovarian
MDA-MB-435 = test system: MDA-MB-435
SW-620 colon = test system: SW-620 colon
HL-60(TB) leukemia = test system: HL-60(TB) leukemia
OVCAR-3 ovarian = test system: OVCAR-3 ovarian
NCI-H460 lung = test system: NCI-H460 lung
HCT-116 colon = test system: HCT-116 colon
OVCAR-8 ovarian = test system: OVCAR-8 ovarian
786-0 renal = test system: 786-0 renal
DU-145 prostate = test system: DU-145 prostate
UO-31 renal = test system: UO-31 renal
HS 578T breast = test system: HS 578T breast
CCRF-CEM leukemia = test system: CCRF-CEM leukemia
SR leukemia = test system: SR leukemia
U251 CNS = test system: U251 CNS
EKVX NSCLC = test system: EKVX NSCLC
UACC-62 melanoma = test system: UACC-62 melanoma
COLO 205 colon = test system: COLO 205 colon
MCF7 breast = test system: MCF7 breast
SF-268 CNS = test system: SF-268 CNS
UACC-257 melanoma = test system: UACC-257 melanoma
OVCAR-5 ovarian = test system: OVCAR-5 ovarian
A498 renal = test system: A498 renal
HCC-2998 colon = test system: HCC-2998 colon
HOP-62 NSCLC = test system: HOP-62 NSCLC
CAKI-1 renal = test system: CAKI-1 renal
NCI-H23 lung = test system: NCI-H23 lung

## O=C(NNc1nc2cc(F)ccc2n2c(CN3CC4(COC4)C3)ccc12)c1cnccn1
T-47D breast
  GI50: 558 nM
  TGI: 22300 nM
MALME-3M melanoma
  GI50: 1600 nM
  TGI: 11900 nM
SNB-19 CNS
  GI50: 854 nM
  TGI: > 100000 nM
SK-MEL-28 melanoma
  GI50: 861 nM
  TGI: 25100 nM
HT29 colon
  GI50: 499 nM
  TGI: 16800 nM
SF-295 CNS
  GI50: 319 nM
  TGI: 12200 nM
NCI-H226 lung
  GI50: 1050 nM
  TGI: 10800 nM
IGROV1 ovarian
  GI50: 717 nM
  TGI: 18900 nM
RPMI-8226 leukemia
  GI50: 689 nM
  TGI: 28100 nM
NCI-H522 lung
  GI50: 497 nM
  TGI: 5500 nM
KM12 colon
  GI50: 579 nM
  TGI: > 64200 nM
NCI/ADR-RES ovarian
  GI50: 386 nM
  TGI: 9970 nM
HOP-92 NSCLC
  GI50: 983 nM
  TGI: 23300 nM
TK-10 renal
  GI50: 263 nM
  TGI: 23200 nM
K-562 leukemia
  GI50: 502 nM
  TGI: > 100000 nM
SN12C renal
  GI50: 952 nM
  TGI: 33500 nM
ACHN renal
  GI50: 233 nM
  TGI: 11700 nM
BT-549 breast
  GI50: 907 nM
  TGI: 9220 nM
SNB-75 CNS
  GI50: 756 nM
  TGI: 11000 nM
PC-3 prostate
  GI50: 719 nM
  TGI: 31400 nM
RXF 393 renal
  GI50: 2290 nM
  TGI: 13700 nM
HCT-15 colon
  GI50: 188 nM
  TGI: 26300 nM
M14 melanoma
  GI50: 451 nM
  TGI: 3530 nM
A549 NSCLC
  GI50: 611 nM
  TGI: 32700 nM
SK-MEL-5 melanoma
  GI50: 673 nM
  TGI: 5330 nM
MOLT-4 leukemia
  GI50: 443 nM
  TGI: > 75600 nM
LOX IMVI melanoma
  GI50: 557 nM
  TGI: 9720 nM
MDA-MB-231 breast
  GI50: 696 nM
  TGI: 19500 nM
SK-OV-3 ovarian
  GI50: 548 nM
  TGI: 9880 nM
SF-539 CNS
  GI50: 675 nM
  TGI: 8970 nM
SK-MEL-2 melanoma
  GI50: 2190 nM
  TGI: 14700 nM
OVCAR-4 ovarian
  GI50: 490 nM
  TGI: > 39100 nM
MDA-MB-435
  GI50: 1300 nM
  TGI: > 47500 nM
SW-620 colon
  GI50: 620 nM
  TGI: > 56300 nM
HL-60(TB) leukemia
  GI50: 469 nM
  TGI: 12900 nM
OVCAR-3 ovarian
  GI50: 650 nM
  TGI: 22700 nM
NCI-H460 lung
  GI50: 259 nM
  TGI: 11600 nM
HCT-116 colon
  GI50: 373 nM
  TGI: 13300 nM
OVCAR-8 ovarian
  GI50: 404 nM
  TGI: 16300 nM
786-0 renal
  GI50: 458 nM
  TGI: 11200 nM
DU-145 prostate
  GI50: 1180 nM
  TGI: > 82400 nM
UO-31 renal
  GI50: 114 nM
  TGI: 5710 nM
HS 578T breast
  GI50: 3040 nM
  TGI: > 95200 nM
CCRF-CEM leukemia
  GI50: 281 nM
  TGI: > 70400 nM
SR leukemia
  GI50: 409 nM
  TGI: > 100000 nM
U251 CNS
  GI50: 395 nM
  TGI: > 53100 nM
EKVX NSCLC
  GI50: 438 nM
  TGI: 30000 nM
UACC-62 melanoma
  GI50: 406 nM
  TGI: 1960 nM
COLO 205 colon
  GI50: 401 nM
  TGI: 16300 nM
MCF7 breast
  GI50: 596 nM
  TGI: 9810 nM
SF-268 CNS
  GI50: 616 nM
  TGI: > 100000 nM
UACC-257 melanoma
  GI50: 1720 nM
  TGI: 8070 nM
OVCAR-5 ovarian
  GI50: 1160 nM
  TGI: 34300 nM
A498 renal
  GI50: 16700 nM
  TGI: 34000 nM
HCC-2998 colon
  GI50: 709 nM
  TGI: > 45900 nM
HOP-62 NSCLC
  GI50: 442 nM
  TGI: 22100 nM
CAKI-1 renal
  GI50: 330 nM
  TGI: 13200 nM
NCI-H23 lung
  GI50: 1780 nM
  TGI: 41800 nM
